Where two headings read alike, the source gives them in different places. One block for each molecule: values may come before it.
Assays:
[1] = Chemical stability in phosphate buffer at 37° C.; type: physicochemical
Experimental: An appropriate amount of the test compound (initial concentrations were 0.1-0.4 mM) was dissolved in pre-heated phosphate buffer (0.16 M, μ=0.5, pH 7.4 or pH 5.0). The solution was placed in a thermostated water bath at 37° C. and aliquots were taken at suitable intervals and analyzed by HPLC to determine the degradation rate of the compound. The pseudo-first-order half-life (t1/2) was calculated from the linear slopes of semi-logarithmic plots of remaining compound over time.

serum esterases = assay: Enzymatic hydrolysis in 80% human serum; type: in vitro ADME; details: pH 7.4, 37° C., read-out: t1/2 (min) 80% human serum (pH 7.4)
Experimental: To exert the pharmacological effect in the body, a prodrug should be enzymatically degraded to the parent drug. Therefore, the susceptibility of the compounds to serum esterases was evaluated.
An appropriate amount of the test compound was dissolved in one volume (e.g. 1 ml) of phosphate buffer (0.16 M, μ=0.5, pH 7.4) at 37° C. Four volumes (e.g. 4 ml) of pre-heated human serum were added and the solutions were mixed in a water bath at 37° C. (initial concentrations were 0.2-0.5 mM). At suitable intervals, 300 μl aliquots were withdrawn and deproteinated with 600 μl of acetonitrile. After mixing and centrifugation, 600 μl of the supernatant was evaporated to dryness under a stream of air at 40° C. The residue was re-dissolved in 300 μl of the mobile phase and analyzed by HPLC. The pseudo-first-order half-life (t1/2) was calculated from the linear slopes of semi-logarithmic plots of remaining compound over time. Also the formation of the parent drug was determined.

normotensive rabbits = assay: IOP study in rabbits; type: in vivo, rabbit; details: for Intraocular pressure (IOP) change: mean ± SE, n = 5-6
Experimental: The IOP lowering effect of the prodrug was also compared to the effect of MPV-2426.
To perform the IOP test, a rabbit was placed in a plastic restraining box located in a quiet room. A single drop (25 μl) of the test solution was instilled unilaterally into its left eye on the upper corneoscleral limbus. During installation, the upper eyelid was pulled slightly away from the globe. IOP was measured using a BioRad (Cambridge, Mass.) Digilab Modular One Pneumatonometer. Before each measurement one or two drops of oxybuprocaine (0.06%) were applied to the cornea before tonometry to eliminate discomfort. The upper and lower eyelids were then gently retracted, and the applanation sensor was brought into contact with the center of the cornea. For each
determination at least two readings were taken from each treated (ipsilateral) and untreated (contralateral) eye, and the mean of these readings was used. IOP of the rabbits was measured at 2, 1, and 0 h before and at 0.5, 1, 2, 3, 4 and 5 h after eyedrop administration. IOP at the time of eyedrop administration (0 h) was used as a baseline value. All studies were set up using a masked and randomized crossover design. At least 72 h washout time was allowed for each rabbit between each dosing. Results

[2] = phosphate buffer pH 5.0, 37° C., read-out: t1/2 (d) phosphate buffer pH 5.0 (converted)
[3] = phosphate buffer pH 7.4, 37° C., read-out: t1/2 (d) phosphate buffer pH 7.4 (converted)
[4] = topical unilateral administration

melting point: 176 to 177 °C
half-life [1, 2]: 310 days
half-life [1, 3]: 31 days
half-life (serum esterases): 30 min
Compound: CC(C)(C)C(=O)Oc1ccc2c(c1)C(Cc1c[nH]cn1)CC2.Cl (stereo not drawn) [example 3, 4-[6-(2,2-Dimethylpropanoyloxy)indan-1-ylmethyl]-1H-imidazol-1-ium chloride]
IOP lowering potency compared to an equimolar dose of MPV-2426 (normotensive rabbits; [4]): increased IOP lowering potency
duration of action compared to MPV-2426 (normotensive rabbits; [4]): prolonged duration of action
duration of the IOP lowering effect (normotensive rabbits; topical unilateral administration, treated eye): lasted from 1 h through the duration of the 5 h experiment
Intraocular pressure (IOP) change (normotensive rabbits; treated eye, 0.1 μg, 0 h): 0.0 ± 0.0 mmHg
Intraocular pressure (IOP) change (normotensive rabbits; treated eye, 0.1 μg, 0.5 h): 1.7 ± 0.9 mmHg
Intraocular pressure (IOP) change (normotensive rabbits; treated eye, 0.1 μg, 1 h): 0.2 ± 1.3 mmHg
Intraocular pressure (IOP) change (normotensive rabbits; treated eye, 0.1 μg, 2 h): 0.8 ± 1.2 mmHg
Intraocular pressure (IOP) change (normotensive rabbits; treated eye, 0.1 μg, 3 h): 0.6 ± 0.6 mmHg
Intraocular pressure (IOP) change (normotensive rabbits; treated eye, 0.1 μg, 4 h): 1.8 ± 0.5 mmHg
Intraocular pressure (IOP) change (normotensive rabbits; treated eye, 0.1 μg, 5 h): 2.0 ± 0.9 mmHg
Intraocular pressure (IOP) change (normotensive rabbits; treated eye, 1.0 μg, 0 h): 0.0 ± 0.0 mmHg
Intraocular pressure (IOP) change (normotensive rabbits; treated eye, 1.0 μg, 0.5 h): −1.0 ± 0.3 mmHg
Intraocular pressure (IOP) change (normotensive rabbits; treated eye, 1.0 μg, 1 h): −3.6 ± 0.7 mmHg
Intraocular pressure (IOP) change (normotensive rabbits; treated eye, 1.0 μg, 2 h): −4.6 ± 1.4 mmHg
Intraocular pressure (IOP) change (normotensive rabbits; treated eye, 1.0 μg, 3 h): −4.3 ± 1.1 mmHg
Intraocular pressure (IOP) change (normotensive rabbits; treated eye, 1.0 μg, 4 h): −2.0 ± 1.4 mmHg
Intraocular pressure (IOP) change (normotensive rabbits; treated eye, 1.0 μg, 5 h): −0.9 ± 1.8 mmHg
Intraocular pressure (IOP) change (normotensive rabbits; treated eye, 2.5 μg, 0 h): 0.0 ± 0.0 mmHg
Intraocular pressure (IOP) change (normotensive rabbits; treated eye, 2.5 μg, 0.5 h): 0.6 ± 0.9 mmHg
Intraocular pressure (IOP) change (normotensive rabbits; treated eye, 2.5 μg, 1 h): −2.9 ± 1.3 mmHg
Intraocular pressure (IOP) change (normotensive rabbits; treated eye, 2.5 μg, 2 h): −3.3 ± 1.8 mmHg
Intraocular pressure (IOP) change (normotensive rabbits; treated eye, 2.5 μg, 3 h): −1.6 ± 1.7 mmHg
Intraocular pressure (IOP) change (normotensive rabbits; treated eye, 2.5 μg, 4 h): 1.0 ± 2.2 mmHg
Intraocular pressure (IOP) change (normotensive rabbits; treated eye, 2.5 μg, 5 h): 1.3 ± 1.9 mmHg
Intraocular pressure (IOP) change (normotensive rabbits; treated eye, 3.4 μg (equimolar to 2.5 μg of MPV-2426), 0 h): 0.0 ± 0.0 mmHg
Intraocular pressure (IOP) change (normotensive rabbits; treated eye, 3.4 μg (equimolar to 2.5 μg of MPV-2426), 0.5 h): −0.9 ± 0.9 mmHg
Intraocular pressure (IOP) change (normotensive rabbits; treated eye, 3.4 μg (equimolar to 2.5 μg of MPV-2426), 1 h): −2.9 ± 0.5 mmHg
Intraocular pressure (IOP) change (normotensive rabbits; treated eye, 3.4 μg (equimolar to 2.5 μg of MPV-2426), 2 h): −6.5 ± 1.1 mmHg
Intraocular pressure (IOP) change (normotensive rabbits; treated eye, 3.4 μg (equimolar to 2.5 μg of MPV-2426), 3 h): −5.2 ± 1.7 mmHg
Intraocular pressure (IOP) change (normotensive rabbits; treated eye, 3.4 μg (equimolar to 2.5 μg of MPV-2426), 4 h): −3.2 ± 0.9 mmHg
Intraocular pressure (IOP) change (normotensive rabbits; treated eye, 3.4 μg (equimolar to 2.5 μg of MPV-2426), 5 h): −1.4 ± 0.7 mmHg
IOP changes in the untreated eyes (normotensive rabbits; untreated (contralateral) eyes): Less significant changes
Intraocular pressure (IOP) change (normotensive rabbits; untreated eye, 0.1 μg, 0 h): 0.0 ± 0.0 mmHg
Intraocular pressure (IOP) change (normotensive rabbits; untreated eye, 0.1 μg, 0.5 h): 1.4 ± 0.1 mmHg
Intraocular pressure (IOP) change (normotensive rabbits; untreated eye, 0.1 μg, 1 h): 0.9 ± 0.5 mmHg
Intraocular pressure (IOP) change (normotensive rabbits; untreated eye, 0.1 μg, 2 h): 1.3 ± 0.2 mmHg
Intraocular pressure (IOP) change (normotensive rabbits; untreated eye, 0.1 μg, 3 h): 1.3 ± 0.7 mmHg
Intraocular pressure (IOP) change (normotensive rabbits; untreated eye, 0.1 μg, 4 h): 1.0 ± 0.9 mmHg
Intraocular pressure (IOP) change (normotensive rabbits; untreated eye, 0.1 μg, 5 h): 2.4 ± 1.3 mmHg
Intraocular pressure (IOP) change (normotensive rabbits; untreated eye, 1.0 μg, 0 h): 0.0 ± 0.0 mmHg
Intraocular pressure (IOP) change (normotensive rabbits; untreated eye, 1.0 μg, 0.5 h): 0.0 ± 1.4 mmHg
Intraocular pressure (IOP) change (normotensive rabbits; untreated eye, 1.0 μg, 1 h): −2.1 ± 1.2 mmHg
Intraocular pressure (IOP) change (normotensive rabbits; untreated eye, 1.0 μg, 2 h): −2.0 ± 1.8 mmHg
Intraocular pressure (IOP) change (normotensive rabbits; untreated eye, 1.0 μg, 3 h): −0.9 ± 2.4 mmHg
Intraocular pressure (IOP) change (normotensive rabbits; untreated eye, 1.0 μg, 4 h): −1.4 ± 0.7 mmHg
Intraocular pressure (IOP) change (normotensive rabbits; untreated eye, 1.0 μg, 5 h): −0.8 ± 2.1 mmHg
Intraocular pressure (IOP) change (normotensive rabbits; untreated eye, 2.5 μg, 0 h): 0.0 ± 0.0 mmHg
Intraocular pressure (IOP) change (normotensive rabbits; untreated eye, 2.5 μg, 0.5 h): −0.2 ± 0.9 mmHg
Intraocular pressure (IOP) change (normotensive rabbits; untreated eye, 2.5 μg, 1 h): −0.6 ± 0.7 mmHg
Intraocular pressure (IOP) change (normotensive rabbits; untreated eye, 2.5 μg, 2 h): 0.0 ± 1.5 mmHg
Intraocular pressure (IOP) change (normotensive rabbits; untreated eye, 2.5 μg, 3 h): 0.1 ± 1.0 mmHg
Intraocular pressure (IOP) change (normotensive rabbits; untreated eye, 2.5 μg, 4 h): 1.0 ± 1.8 mmHg
Intraocular pressure (IOP) change (normotensive rabbits; untreated eye, 2.5 μg, 5 h): 0.3 ± 1.6 mmHg
Intraocular pressure (IOP) change (normotensive rabbits; untreated eye, 3.4 μg (equimolar to 2.5 μg of MPV-2426), 0 h): 0.0 ± 0.0 mmHg
Intraocular pressure (IOP) change (normotensive rabbits; untreated eye, 3.4 μg (equimolar to 2.5 μg of MPV-2426), 0.5 h): 0.4 ± 0.7 mmHg
Intraocular pressure (IOP) change (normotensive rabbits; untreated eye, 3.4 μg (equimolar to 2.5 μg of MPV-2426), 1 h): −2.7 ± 0.8 mmHg
Intraocular pressure (IOP) change (normotensive rabbits; untreated eye, 3.4 μg (equimolar to 2.5 μg of MPV-2426), 2 h): −1.3 ± 0.6 mmHg
Intraocular pressure (IOP) change (normotensive rabbits; untreated eye, 3.4 μg (equimolar to 2.5 μg of MPV-2426), 3 h): −2.8 ± 0.8 mmHg
Intraocular pressure (IOP) change (normotensive rabbits; untreated eye, 3.4 μg (equimolar to 2.5 μg of MPV-2426), 4 h): −0.8 ± 0.7 mmHg
Intraocular pressure (IOP) change (normotensive rabbits; untreated eye, 3.4 μg (equimolar to 2.5 μg of MPV-2426), 5 h): −0.8 ± 1.0 mmHg

Compound: CC(=O)Oc1ccc2c(c1)C(Cc1c[nH]cn1)CC2.Cl (stereo not drawn) [example 1, 4-(6-Acetoxyindan-1-ylmethyl)-1H-imidazol-1-ium chloride]
half-life [1, 2]: 23 days
half-life [1, 3]: 1.1 days
half-life (serum esterases): 0.18 min

Compound: Cl.Oc1ccc2c(c1)C(Cc1c[nH]cn1)CC2 (stereo not drawn) [MPV-2426, 4-(6-hydroxyindan-1-ylmethyl)-1H-imidazol-1-ium chloride, reference compound]
Intraocular pressure (IOP) change (normotensive rabbits; treated eye, 2.5 μg, 0 h): 0.0 ± 0.0 mmHg
Intraocular pressure (IOP) change (normotensive rabbits; treated eye, 2.5 μg, 0.5 h): 0.1 ± 1.0 mmHg
Intraocular pressure (IOP) change (normotensive rabbits; treated eye, 2.5 μg, 1 h): −2.6 ± 1.1 mmHg
Intraocular pressure (IOP) change (normotensive rabbits; treated eye, 2.5 μg, 2 h): −3.0 ± 0.7 mmHg
Intraocular pressure (IOP) change (normotensive rabbits; treated eye, 2.5 μg, 3 h): −2.4 ± 0.5 mmHg
Intraocular pressure (IOP) change (normotensive rabbits; treated eye, 2.5 μg, 4 h): −0.4 ± 1.2 mmHg
Intraocular pressure (IOP) change (normotensive rabbits; treated eye, 2.5 μg, 5 h): −0.1 ± 0.8 mmHg
Intraocular pressure (IOP) change (normotensive rabbits; untreated eye, 2.5 μg, 0 h): 0.0 ± 0.0 mmHg
Intraocular pressure (IOP) change (normotensive rabbits; untreated eye, 2.5 μg, 0.5 h): 0.3 ± 1.0 mmHg
Intraocular pressure (IOP) change (normotensive rabbits; untreated eye, 2.5 μg, 1 h): −1.3 ± 0.7 mmHg
Intraocular pressure (IOP) change (normotensive rabbits; untreated eye, 2.5 μg, 2 h): −1.6 ± 0.9 mmHg
Intraocular pressure (IOP) change (normotensive rabbits; untreated eye, 2.5 μg, 3 h): −1.7 ± 0.6 mmHg
Intraocular pressure (IOP) change (normotensive rabbits; untreated eye, 2.5 μg, 4 h): 0.4 ± 1.1 mmHg
Intraocular pressure (IOP) change (normotensive rabbits; untreated eye, 2.5 μg, 5 h): 0.4 ± 1.1 mmHg

Compound: CCCC(=O)Oc1ccc2c(c1)C(Cc1c[nH]cn1)CC2.Cl (stereo not drawn) [example 2, 4-(6-Butyryloxyindan-1-ylmethyl)-1H-imidazol-1-ium chloride]
half-life [1, 2]: 49 days
half-life [1, 3]: 2.5 days
half-life (serum esterases): 0.2 min

— US7759496B2, “Imidazole derivatives having affinity for alpha 2 receptors activity” (Orion Corporation, priority 2002, dated 2010)
